For data set [1] the following is noted: cited from earlier work; for Kow: octanol-water coefficient; for log10(Kow): organic solvents used for extraction of HA-stabilized CNTs (FIG. 9).
The conditions of data set [2]: water solubility of the HOC; cited from earlier work.
For data set [3] the following is noted: benzalkonium chloride concentration of 6.0 g/L; cited from earlier work.
A short description of data set [4]: Sorption kinetics of HOCs onto Mag-PCMAs from contaminated water. To be noted: 20 mg/L HA; initial diuron 34.3 μmol/L. Format: physicochemical. The protocol:
Sorption kinetics of HOCs onto Mag-PCMAs from contaminated water. The HOC sorption kinetics onto Mag-PCMAs were determined by batch experiments. Aliquots (50 mg) of Mag-PCMAs were mixed in 10 ml glass tubes with 10.0 ml of an aqueous solution of each HOC. […] The caps of the tubes were lined with PTFE. The tubes were shaken at 60 rpm at 22±2° C. continuously. At the end of 5, 10, 20, 30, 45, 60, 90, 120, 180, 200, 360, 720, and 1440 minutes, one tube was taken out. A magnet was then used to separate the Mag-PCMAs from the aqueous phase. […] 1.0 ml of the supernatant was taken for HOC analysis on a high performance liquid chromatography (HPLC). The amount of HOC sorbed was calculated as the difference between the initial and final HOC mass in aqueous phase. To order to investigate the effect of the presence of HA on HOC sorption kinetics, diuron sorption kinetics were determined in the presence of 20 mg/L HA (organic carbon content), an environmental relevant HA concentration.^29 The initial diuron concentration was 34.3 μmol/L.

Converted amounts (≈) assume the structure as drawn.

Here are results for 7 compounds from patent US20120037840A1, “USE OF MAGNETIC NANOPARTICLES TO REMOVE ENVIRONMENTAL CONTAMINANTS” (priority 2008, published 2012).

In the case of `CCNc1nc(Cl)nc(NC(C)C)n1` [Atrazine, 2-chloro-4-ethylamino-6-isopropylamino-1,3,5-triazine], in data set [1], the Kow is reported as 416.
The Solubility is the concentration that dissolves in the medium under given conditions. For the compound `c1ccc(-c2ccccc2)cc1` [Biphenyl, biphenyl], the Kow in data set [1] was 7079. Moreover, the Solubility in data set [2] is 44 µg/mL (≈ 285 µM).
`CN(C)C(=O)Nc1ccc(Cl)c(Cl)c1` [Diuron, 3-(3,4-dichlorofenyl)-1,1-dimethylurea]: in data set [1], the Kow is reported as 660. For the same compound, the “solubility of diuron relative to that in absence of the surfactant” value in data set [3] is “about 20 times”. The Solubility in data set [2] was 180 µg/mL (≈ 772 µM). In addition, in data set [4], the “effect of presence of HA on sorption kinetics” value was “no significant effect”.
For the compound `c1ccc2ccccc2c1` [Naphthalene, naphthalene], in data set [2], the Solubility was 225 µg/mL (≈ 1760 µM).
`ClC=C(Cl)Cl` [TCE, trichloroethene]: in data set [1], the “log10(Kow)” value is recorded as 2.33.
For the compound `CCCCCC` [hexane], the “log10(Kow)” value in data set [1] is given as 4.00.
For `CCCCCCCC` [octane], the “log10(Kow)” value in data set [1] is listed as 5.18.
